Data taken from patent publication US20250243189A1, “HERBICIDAL IMIDAZOLE-CONTAINING COMPOUNDS” (SYNGENTA CROP PROTECTION AG, priority 2022, published 2025).

Assays:
Format in all cases: in vivo
Settings in all cases: 250 g/ha, evaluated after 13 days, five-point scale
AMAPA [1] = test: Pre-emergence herbicidal glasshouse test
Procedure: [Worded in the source for another organism; this organism is reported under the same test.] (§1) Seeds of a variety of test species are sown in standard soil in pots Amaranthus retoflexus (AMARE), Echinochloa crus-galli (ECHCG), Setaria faberi (SETFA)). After cultivation for one day (pre-emergence) or after 8 days cultivation (post-emergence) under controlled conditions in a glasshouse (at 24/16° C., day/night; 14 hours light; 65% humidity), the plants are sprayed with an aqueous spray solution derived from the formulation of the technical active ingredient in acetone/water (50:50) solution containing 0.5% Tween 20 (polyoxyethelyene sorbitan monolaurate, CAS RN 9005-64-5). Compounds are applied at 250 g/ha unless otherwise stated. The test plants are then grown in a glasshouse under controlled conditions in a glasshouse (at 24/16° C., day/night; 14 hours light; 65% humidity) and watered twice daily. After 13 days for pre and post-emergence, the test is evaluated for the percentage damage caused to the plant. The biological activities are shown in the following table on a five-point scale (5=81-100%; 4=61-80%; 3=41-60%; 2=21-40%; 1=0-20%).

IPOHE [2] = test: Pre-emergence herbicidal glasshouse test
Procedure: as §1

[3] = tested on: Echinochloa crus-galli (ECHCG); test: Pre-emergence herbicidal glasshouse test
Procedure: as §1

[4] = tested on: Amaranthus retoflexus (AMARE); test: Pre-emergence herbicidal glasshouse test
Procedure: as §1

AMAPA [5] = test: Post-emergence herbicidal glasshouse test
Procedure: [Worded in the source for another organism; this organism is reported under the same test.] as §1

IPOHE [6] = test: Post-emergence herbicidal glasshouse test
Procedure: as §1

[7] = tested on: Echinochloa crus-galli (ECHCG); test: Post-emergence herbicidal glasshouse test
Procedure: as §1

[8] = tested on: Amaranthus retoflexus (AMARE); test: Post-emergence herbicidal glasshouse test
Procedure: as §1

Row | Structure (SMILES) | percentage damage caused to the plant, AMAPA (AMAPA [1]) | percentage damage caused to the plant, IPOHE (IPOHE [2]) | percentage damage caused to the plant, ECHCG [3] | percentage damage caused to the plant, AMARE [4] | percentage damage caused to the plant, AMAPA (AMAPA [5]) | percentage damage caused to the plant, IPOHE (IPOHE [6]) | percentage damage caused to the plant, ECHCG [7] | percentage damage caused to the plant, AMARE [8]
1 | Cn1ccc(-c2nc(C(F)(F)F)cn2Cc2ncc(Cl)cn2)n1 [Compound 1.004] | 1 (1=0-20%) | 1 (1=0-20%) | 1 (1=0-20%) | 1 (1=0-20%) | 1 (1=0-20%) | 1 (1=0-20%) | 1 (1=0-20%) | 1 (1=0-20%)
2 | FC(F)(F)c1cn(Cc2ncc(Cl)cn2)c(-c2cnco2)n1 [Compound 1.020] | 3 (3=41-60%) | 4 (4=61-80%) | 1 (1=0-20%) | 5 (5=81-100%) | 2 (2=21-40%) | 4 (4=61-80%) | 1 (1=0-20%) | 3 (3=41-60%)
3 | FC(F)(F)c1cn(Cc2ncc(Cl)cn2)c(-c2nccs2)n1 [Compound 1.022] | 1 (1=0-20%) | 1 (1=0-20%) | 1 (1=0-20%) |  | 1 (1=0-20%) | 1 (1=0-20%) | 1 (1=0-20%) | 1 (1=0-20%)
4 | FC(F)n1cc(-c2nc(C(F)(F)F)cn2Cc2ncc(Cl)cn2)cn1 [Compound 1.017] | 5 (5=81-100%) | 5 (5=81-100%) | 5 (5=81-100%) | 5 (5=81-100%) | 5 (5=81-100%) | 5 (5=81-100%) | 5 (5=81-100%) | 5 (5=81-100%)
5 | FC(F)(F)c1cn(Cc2ncc(Cl)cn2)c(-c2sc(Cl)nc2Cl)n1 [Compound 1.046] | 4 (4=61-80%) | 1 (1=0-20%) | 1 (1=0-20%) | 1 (1=0-20%) | 2 (2=21-40%) | 1 (1=0-20%) | 1 (1=0-20%) | 2 (2=21-40%)
6 | Cc1cnc(Cn2cc(C(F)(F)F)nc2-c2ccc(Cl)s2)nc1 [Compound 1.072] | 5 (5=81-100%) | 5 (5=81-100%) | 5 (5=81-100%) | 5 (5=81-100%) | 5 (5=81-100%) | 4 (4=61-80%) | 5 (5=81-100%) | 5 (5=81-100%)
7 | Cc1ncsc1-c1nc(C(F)(F)F)cn1Cc1ncc(Cl)cn1 [Compound 1.042] | 5 (5=81-100%) | 5 (5=81-100%) | 5 (5=81-100%) | 5 (5=81-100%) | 5 (5=81-100%) | 4 (4=61-80%) | 4 (4=61-80%) | 5 (5=81-100%)
8 | FC(F)(F)c1cn(Cc2ccc(Cl)cn2)c(-c2ccc(Cl)s2)n1 [Compound 1.047] | 5 (5=81-100%) | 2 (2=21-40%) | 4 (4=61-80%) | 5 (5=81-100%) | 5 (5=81-100%) | 4 (4=61-80%) | 4 (4=61-80%) | 5 (5=81-100%)
9 | FC(F)(F)c1cn(Cc2ncc(Cl)cn2)c(-c2csc(Cl)c2)n1 [Compound 1.021] | 5 (5=81-100%) | 4 (4=61-80%) | 5 (5=81-100%) | 5 (5=81-100%) | 5 (5=81-100%) | 4 (4=61-80%) | 4 (4=61-80%) | 4 (4=61-80%)
